Source: patent publication US20160376240A1, “6 Phenyl or 6 Pyridin 3 YL Indazole Derivatives and Methods of Use” (ABBVIE INC., priority 2014, published 2016)

What follows are compounds tested against T1, TrkA (Homo sapiens, UniProt P04629) (assay: TrkA kinase inhibition, HTRF assay). Conditions: LCK peptide substrate 125 nM, TrkA 2-10 nM pre-incubated with ATP 200 μM.
T1 construct: purchased Invitrogen PV3144
Assay type: biochemical
Method in brief: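 TrkA (2-10 nM) preactivated 20 min with 200 μM ATP in HEPES pH 7.4 with Mg2+/Mn2+, then compound for 10 min, then 125 nM biotinylated LCK-peptide for 1 h at ambient temperature. HTRF 665/620 ratio read; IC50 fitted from initial-rate percent inhibition.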

T1 sequence (P04629 33-796): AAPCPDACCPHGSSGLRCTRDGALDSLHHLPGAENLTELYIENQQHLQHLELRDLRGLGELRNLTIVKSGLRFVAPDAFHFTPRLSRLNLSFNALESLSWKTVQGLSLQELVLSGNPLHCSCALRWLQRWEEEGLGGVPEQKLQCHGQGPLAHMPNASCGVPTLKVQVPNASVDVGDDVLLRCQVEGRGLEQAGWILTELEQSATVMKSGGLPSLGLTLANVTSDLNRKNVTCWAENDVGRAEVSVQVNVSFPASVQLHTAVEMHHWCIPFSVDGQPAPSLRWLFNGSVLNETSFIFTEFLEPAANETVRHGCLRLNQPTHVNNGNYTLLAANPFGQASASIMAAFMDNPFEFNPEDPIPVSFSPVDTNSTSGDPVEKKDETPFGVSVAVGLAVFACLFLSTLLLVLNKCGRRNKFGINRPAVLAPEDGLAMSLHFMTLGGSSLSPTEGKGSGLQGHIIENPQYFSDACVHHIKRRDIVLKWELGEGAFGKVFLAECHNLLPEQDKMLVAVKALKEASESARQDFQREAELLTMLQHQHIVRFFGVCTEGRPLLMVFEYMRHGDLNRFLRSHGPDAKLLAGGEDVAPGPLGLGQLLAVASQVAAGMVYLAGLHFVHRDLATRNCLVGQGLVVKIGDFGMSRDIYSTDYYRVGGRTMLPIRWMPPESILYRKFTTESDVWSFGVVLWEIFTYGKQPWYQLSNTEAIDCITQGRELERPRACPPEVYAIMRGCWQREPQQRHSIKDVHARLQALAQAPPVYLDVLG

IC50 | SMILES
3.23 nM | CNC(=O)c1ccc(-c2cc(O[C@H](C)C(F)(F)F)c3c(N)n[nH]c3c2)cc1OCCOC1CCCCC1 [Example 105, 4-(3-amino-4-{[(2R)-1,1,1-trifluoropropan-2-yl]oxy}-1H-indazol-6-yl)-2-[2-(cyclohexyloxy)ethoxy]-N-methylbenzamide]
2.9 nM | NC(=O)c1ccc(-c2cc(OC3CCOCC3)c3c(N)n[nH]c3c2)cc1N1CCN(c2cccc(Cl)c2)CC1 [Example 12, 4-[3-amino-4-(tetrahydro-2H-pyran-4-yloxy)-1H-indazol-6-yl]-2-[4-(3-chlorophenyl)piperazin-1-yl]benzamide]
208 nM | NC(=O)c1ccc(-c2cc(OC3CCOCC3)c3c(N)n[nH]c3c2)cc1N1CCN(CCOCCO)CC1 [Example 11, 4-[3-amino-4-(tetrahydro-2H-pyran-4-yloxy)-1H-indazol-6-yl]-2-{4-[2-(2-hydroxyethoxy)ethyl]piperazin-1-yl}benzamide]
135 nM | CNC(=O)c1ccc(-c2cc(O[C@H](C)C(F)(F)F)c3c(N)n[nH]c3c2)cc1N1CCC(C2CCCCC2)CC1 [Example 61, 4-(3-amino-4-{[(2R)-1,1,1-trifluoropropan-2-yl]oxy}-1H-indazol-6-yl)-2-(4-cyclohexylpiperidin-1-yl)-N-methylbenzamide]
15.9 nM | CNC(=O)c1ccc(-c2cc(OC3CCOCC3)c3c(C)n[nH]c3c2)cc1N1CCN(Cc2cccc(F)c2)CC1 [Example 154, 2-[4-(3-fluorobenzyl)piperazin-1-yl]-N-methyl-4-[3-methyl-4-(tetrahydro-2H-pyran-4-yloxy)-1H-indazol-6-yl]benzamide]
110 nM | CC(=O)c1ccc(-c2cc(OC3CCOCC3)c3c(N)n[nH]c3c2)cc1N1CCN(C2CC2)CC1 [Example 14, 1-{4-[3-amino-4-(tetrahydro-2H-pyran-4-yloxy)-1H-indazol-6-yl]-2-(4-cyclopropylpiperazin-1-yl)phenyl}ethanone]
